Source: US10570099B2, “Salts of an epidermal growth factor receptor kinase inhibitor” (Celgene CAR LLC, priority 2012, dated 2020)

How the values were obtained:
[1] = Intrinsic dissolution of compressed discs; type: physicochemical; conditions: early time points
Experimental: A Sotax AT7 dissolution bath (USP 2, EP 2 apparatus) was used for the dissolution study in which paddles were used to stir the media. All tests were carried out at 37° C. and a paddle speed of 100 rpm.
(§1) Approximately 100-120 mg of each form was compressed into discs by placing the material into a die (diameter: 13 mm) and compressing the die under 5 tons of pressure in a hydraulic press for ca. 2 minutes. A Sotax AT7 (conformed to EP2 and USP2) dissolution instrument was used containing paddles to stir the media at 100 rpm. Dissolution media of pH 3 (1% SDS) and pH 4.5 (1% SDS) were prepared using citrate/phosphate buffer. All materials were tested in 750 ml of the buffer medium. Discs were added at time=0 seconds and allowed to sink to the bottom of the dissolution vessel before stirring began. ca. 1 ml aliquots of media were extracted from the dissolution vessels at times 1, 5, 10, 15, 30, 60, 120, 240 minutes and 24 hours, and tested for dissolved salt concentration by HPLC-UV. The dissolution tests were carried out in duplicate. For both dissolution media, the peak areas for the initial time points (up to 15 minutes), fell below the limit of quantification, however, when plotting Dissolution rate vs. time, the steepest part of the curve occurs during these early time points.
as §1, with “material” for “each form”, “API” for “dissolved salt”

[2] = Dynamic vapour sorption (DVS); type: physicochemical
Experimental: For dynamic vapour sorption (DVS), approximately 10-20 mg of sample was placed into a wire mesh vapour sorption balance pan and loaded into a DVS-1 dynamic vapour sorption balance by Surface Measurement Systems. The sample was subjected to a ramping profile from 20-90% relative humidity (RH) at 10% increments, maintaining the sample at each step until a stable weight had been achieved (99.5% step completion). After completion of the sorption cycle, the sample was dried using the same procedure, but all the way down to 0% RH and finally taken back to the starting point of 20% RH. The weight change during the sorption/desorption cycles were plotted, allowing for the hygroscopic nature of the sample to be determined.

[3] = Salt disproportionation study (slurry in deionized water); type: physicochemical; conditions: deionized water slurry
Experimental: The pH of the supernatant was also monitored.
The hydrobromide salt was slurried in deionised water at ambient temperature (ca. 22° C.). […] The pH of the supernatant was also monitored.

[4] = 1 week stability study (XRPD and HPLC); type: physicochemical; conditions: 1 week, listed as hydrobromide salt
Experimental: (§2) Resulting solids were analysed by XRPD and HPLC to establish if any changes had occurred.
as §2
The resulting solids were analysed by XRPD and HPLC to establish if any changes had occurred.

[5] = Slurry in pH 6.2 aqueous medium (conversion to unknown solid form); type: physicochemical; conditions: slurry in aqueous pH 6.2 medium, ambient, XRPD
Experimental: In attempts to characterize this form, as well as establish the rate of conversion to this form while slurrying the material, the following experiments were carried out. Initially, approximately 100 mg of the hydrobromide (1 equiv.) material was slurried in a pH 6.2 aqueous solution at ambient and XRPD analysis was carried out at time points 5 min., 1 hr, 2 hrs, 4 hrs and 8 hrs. Further analysis was then also carried out on the converted material.

[6] = Dog PK Study 1 (cross-over, fasted); type: in vivo, beagle dogs; conditions: fasted dogs, oral, 24.5-28.5 mg/kg QD
Experimental: Compound 1 free base and compound 2, as the Form I monohydrobromide (HBr) salt, were evaluated in a cross-over dog PK study. Compound 1 free base capsule consisted of compound 1 free base in Vitamin E TPGS and PEG 400 filled into a capsule. The Form I hydrobromide salt capsule consisted of Form I HBr alone filled into a capsule.
Compound 1 free base capsule and Form I HBr capsule were dosed orally at 28.5 and 24.5 mg/kg (as active) QD, respectively, to three fasted male non-naïve beagle dogs (body weight range: 10.1-10.8 kg) with a 5-day washout period. Approximately 5 mL of tap water was orally administered to encourage swallowing and ensure delivery of capsules into the stomach. Plasma samples were collected at pre-dose and 0.5, 1, 2, 4, 6, 8, 12 and 24 hours post dose. The plasma concentrations of compound 1 were determined by a liquid chromatography-tandem mass spectrometry (LC/MS/MS) method.

[7] = Hygroscopicity judged from TGA / water retained after drying; type: physicochemical
Experimental: For thermogravimetric analysis (TGA), approximately 5-10 mg of material was accurately weighed into an open aluminium pan and loaded into a simultaneous thermogravimetric/differential thermal analyser (TG/DTA) and held at room temperature. The sample was then heated at a rate of 10° C./min from 25° C. to 300° C. during which time the change in sample weight was recorded along with any differential thermal events (DTA). Nitrogen was used as the purge gas, at a flow rate of 100 cm^3/min.

[8] = 40° C./75% RH, closed (crimped) vial

SMILES: Br.C=CC(=O)Nc1cccc(Nc2nc(Nc3ccc(N4CCN(C(C)=O)CC4)cc3OC)ncc2C(F)(F)F)c1 [Form I hydrobromide salt]
- intrinsic dissolution value ([1]; pH 3.0 (1% SDS), tablet 1): approximately 0.35 mg/cm^2/min
- intrinsic dissolution value ([1]; pH 3.0 (1% SDS), tablet 2): approximately 0.35 mg/cm^2/min
- intrinsic dissolution value ([1]; pH 4.5 (1% SDS), tablet 1): approximately 0.27 mg/cm^2/min
- intrinsic dissolution value ([1]; pH 4.5 (1% SDS), tablet 2): ~0.28 mg/cm^2/min
- post DVS XRPD analysis (polymorphic form) ([2]; after DVS cycles, listed as hydrobromide salt): remain consistent
- water uptake (DVS) ([2]; between 20 and 70% RH): 0.97%
- pH of the supernatant ([3]; 1 hr): pH 1
- pH of the supernatant ([3]; 24 hrs): pH 1
- pH of the supernatant ([3]; 48 hrs): pH 1
- HPLC purity after storage [4, 8]: 97.2%
- XRPD after storage [4, 8]: No polymorphic form changes observed
- HPLC purity after storage ([4]; 40° C./75% RH, open vial): 97.2%
- XRPD after storage ([4]; 40° C./75% RH, open vial): No polymorphic form changes observed
- HPLC purity after storage ([4]; 80° C., open vial): 97.1%
- XRPD after storage ([4]; 80° C., open vial): No polymorphic form changes observed
- time of conversion to the unknown solid form [5]: 2 to 4 h
- compound 1 exposure (AUC and Cmax) compared to the free base form [6]: significantly higher
- hygroscopicity (TGA, water retained at ambient conditions) [7]: slightly hygroscopic
